US9193740B2, “Bismacrocyclic compounds as hepatitis C virus inhibitors” (Enanta Pharmaceuticals, Inc., priority 2009, dated 2015)

Test system: HCV 1b genotype replicon
Assay: Cell-based HCV replicon assay (qRT-PCR or luciferase), genotype 1b
Details: Hepatitis C virus
Protocol: Cell-Based Replicon Assay
The anti-HCV activity of the compounds is determined using the cell-based replicon assay and the HCV replication assay described in US Publication No: 2010/0003214, incorporated herein by reference in its entirety.
HCV Replicon Assay—Luciferase
Since clinical drug resistance often develops in viral infections following single agent therapies, there is a need to assess the additive, antagonistic, or synergistic properties of combination therapies. We use the HCV replicon system to assess the potential use of the compound of the present invention or in combination therapies with Interferon alpha, cyclosporine analogs and inhibitors targeting other HCV proteins. The acute effects of a single or combinations of drugs are studied in the “Huh-luc/neo-ET” replicon with each chemical agent titrated in an X or Y direction in a 6 point two-fold dilution curve centered around the EC50 of each drug. […] Using this method, the combination data are analyzed for antagonistic, additive, or synergistic combination effects across the entire combination surface created by the diluted compounds in combination. […]

Row | Compound | EC50 [nM]
1 | CC1(C)CC/C=C/C(F)(F)c2nc3ccccc3nc2O[C@@H]2C[C@H]3C(=O)N[C@]4(C(=O)NS(=O)(=O)C5CC5)C[C@H]4/C=C\CCCCC[C@H](NC(=O)OC1)C(=O)N3C2 [Example 8] | < 1
2 | O=C1N[C@H]2CCCCC/C=C\[C@@H]3C[C@@]3(C(=O)NS(=O)(=O)C3CC3)NC(=O)[C@@H]3C[C@H](CN3C2=O)Oc2nc3ccccc3nc2-c2cccc(c2)OCC(F)(F)CO1 [Example 2] | < 1
